Assay results: the supplement of paper PMC9663587

Tests used:
[1] = tested on: CAL120; experiment: GRmax, 72 h; higher = less effect;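 further: breast cell lines in 384-well plates, nine doses across a 10^4 range, Dye Drop imaging of viable cells vs DMSO and time-zero plates, GR 0 means no net growth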
[2] = tested on: HCC1395; experiment: GRmax, 72 h; higher = less effect;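 further: breast cell lines in 384-well plates, nine doses across a 10^4 range, Dye Drop imaging of viable cells vs DMSO and time-zero plates, GR 0 means no net growth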
[3] = tested on: HCC1954; experiment: GRmax, 72 h; higher = less effect;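 further: breast cell lines in 384-well plates, nine doses across a 10^4 range, Dye Drop imaging of viable cells vs DMSO and time-zero plates, GR 0 means no net growth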
[4] = tested on: HCC202; experiment: GRmax, 72 h; higher = less effect;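 further: breast cell lines in 384-well plates, nine doses across a 10^4 range, Dye Drop imaging of viable cells vs DMSO and time-zero plates, GR 0 means no net growth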
[5] = tested on: HCC70; experiment: GRmax, 72 h; higher = less effect
[6] = tested on: HTERT_HME1; experiment: GRmax, 72 h; higher = less effect
[7] = tested on: SUM190PT; experiment: GRmax, 72 h; higher = less effect
[8] = tested on: MCF10A (GM); experiment: area over the GR curve, 72 h; higher = more effect;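 further: Dye Drop or Deep Dye Drop imaging of viable cells in 384-well plates (Hoechst nuclei, LIVE/DEAD dye), nine half-log doses, GR normalized to DMSO controls and time-zero plates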
[9] = tested on: PDX1206; experiment: area over the GR curve, 72 h; higher = more effect;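 further: Dye Drop or Deep Dye Drop imaging of viable cells in 384-well plates (Hoechst nuclei, LIVE/DEAD dye), nine half-log doses, GR normalized to DMSO controls and time-zero plates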

| SMILES | GRmax, 72 h [1] | GRmax, 72 h [2] | GRmax, 72 h [3] | GRmax, 72 h [4] | GRmax, 72 h [5] | GRmax, 72 h [6] | GRmax, 72 h [7] | area over the GR curve [8] | area over the GR curve [9] |
| --- | --- | --- | --- | --- | --- | --- | --- | --- | --- |
| CCCCOc1c(C(=O)c2c(F)cc(C)cc2F)c[nH]c2nncc1-2 (max 10 µM) | 0.369 GR | -0.214 GR | -0.0431 GR | 0.384 GR | -0.164 GR | -0.0276 GR | -0.0112 GR | 0.423 GR | 0.691 GR |
| CNc1nc(-c2ccc3c(N)n[nH]c3c2)cc(N2C[C@@H](C(=O)NC3CCCCC3)CC[C@H]2C)n1 (max 10 µM) | 0.786 GR | 0.518 GR | 0.733 GR | 0.155 GR | 0.15 GR | 0.641 GR | 0.236 GR | 0.0279 GR | 0.327 GR |
| CO[C@@H](C)Cn1c(=O)n(C)c2cnc3ccc(-c4cncc(C(C)(C)O)c4)cc3c21 (max 10 µM) | 0.0419 GR | -0.0122 GR | -0.346 GR | -0.0355 GR | -0.755 GR | 0.0519 GR | -0.5 GR | 0.67 GR | 0.804 GR |
| C=CCn1c(=O)c2cnc(Nc3ccc(N4CCN(C)CC4)cc3)nc2n1-c1cccc(C(C)(C)O)n1 [AZD1775] (max 10 µM) | -0.238 GR | -0.587 GR | -0.416 GR | -0.148 GR | -0.75 GR | -0.17 GR | -0.197 GR | 0.136 GR | 0.455 GR |
| CNC(=O)c1cccc(-c2ccc3c(N4CCOC[C@@H]4C)nc(N4CCOC[C@@H]4C)nc3n2)c1 [AZD2014] (max 10 µM) | 0.206 GR | 0.274 GR | 0.0889 GR | 0.0087 GR | 0.0453 GR | 0.143 GR | -0.514 GR | 0.533 GR | 0.697 GR |
| NC1(C(=O)N[C@@H](CCO)c2ccc(Cl)cc2)CCN(c2nc[nH]c3nccc2-3)CC1 [AZD5363] (max 10 µM) | 0.806 GR | 0.0739 GR | 0.272 GR | 0.572 GR | -0.292 GR | 0.564 GR | 0.243 GR | 0.214 GR | 0.4 GR |
| C[C@@H]1COCCN1c1cc(C2([S@](C)(=N)=O)CC2)nc(-c2cc[nH]c3nccc2-3)n1 [AZD6738] (max 10 µM) | 0.783 GR | -0.284 GR | 0.15 GR | 0.383 GR | -0.532 GR | 0.287 GR | -0.036 GR | 0.073 GR | 0.0536 GR |
| CN(C)C/C=C/C(=O)Nc1ccc(O[C@@H]2CCC[C@@H](Nc3ncc(Cl)c(-c4c[nH]c5ccccc45)n3)C2)cc1 [BSJ-01-175] (max 10 µM) | -0.272 GR | -0.862 GR | -0.652 GR | -0.201 GR | -0.884 GR | -0.28 GR | -0.545 GR | 0.326 GR | 0.9 GR |
| CC(=O)c1c(C)c2cnc(Nc3ccc(N4CCN(CCOCCOCCOCCNC(=O)COc5cccc6c5C(=O)N(C5CCC(=O)NC5=O)C6=O)CC4)cn3)nc2n(C2CCCC2)c1=O (stereo not drawn) [BSJ-03-123] (max 10 µM) | 0.239 GR | -0.171 GR | 0.0033 GR | 0.0834 GR | -0.513 GR | -0.153 GR | -0.279 GR | 0.25 GR | 0.163 GR |
| CC(C)Nc1cc(-c2c[nH]c(C(=O)N[C@H](CO)c3cccc(Cl)c3)c2)c(Cl)cn1 [BVD523] (max 10 µM) | 0.482 GR | 0.253 GR | 0.264 GR | 0.57 GR | 0.461 GR | 0.001 GR | 0.237 GR | 0.266 GR | 0.0779 GR |
| CCC(=O)Nc1ccc(C(=O)Nc2ccc(Nc3ncc4c(n3)N(C)c3ccc(C)cc3C(=O)N4C)cc2)cc1 [FMF-03-145-1] | 0.191 GR | -0.151 GR | -0.181 GR | 0.23 GR | -0.317 GR | -0.0813 GR | 0.0989 GR | 0.376 GR | 0.946 GR |
| COc1cc(N2CCN(C)CC2)ccc1Nc1ncc2c(n1)N(C)c1ccccc1C(=O)N2CC(F)(F)F [FMF-03-146-1] | 0.968 GR | 0.64 GR | 0.808 GR | 0.892 GR | 0.926 GR | 0.785 GR | 0.886 GR | 0.001 GR | -0.0165 GR |
| CN1CC[C@H](c2c(O)cc(O)c3c(=O)cc(-c4ccccc4Cl)oc23)[C@H](O)C1 [Flavopiridol] (max 1 µM) | -0.0459 GR | -0.644 GR | -0.526 GR | 0.027 GR | -0.811 GR | -0.408 GR | -0.324 GR | 0.316 GR | 0.458 GR |
| CN(C)C(=O)c1cc2cnc(Nc3ccc(N4CCNCC4)cn3)nc2n1C1CCCC1 [LEE011/Ribociclib] (max 10 µM) | 0.632 GR | 0.403 GR | 0.543 GR | 0.778 GR | 1.04 GR | 0.292 GR | 0.199 GR | 0.166 GR | 0.166 GR |
| O=C1NC(=NCc2cccs2)SC1=Cc1ccc2ncccc2c1 [R0-3306] (max 10 µM) | 0.15 GR | -0.235 GR | -0.0775 GR | 0.203 GR | -0.204 GR | -0.107 GR | -0.11 GR | 0.0788 GR | 0.197 GR |
| CNCc1ccc(-c2[nH]c3cc(F)cc4c3c2CCNC4=O)cc1 [Rucaparib] (max 10 µM) | 0.613 GR | 0.234 GR | 0.906 GR | 0.523 GR | 1.06 GR | 0.785 GR | 0.771 GR | 0.0455 GR | 0.114 GR |
| CC1(N)CCN(c2cnc(-c3cccc(Cl)c3Cl)c(N)n2)CC1 [SHP099] (max 10 µM) | 0.869 GR | 0.548 GR | 0.569 GR | 0.733 GR | 0.708 GR | 0.606 GR | 0.749 GR | 0.0203 GR | 0.0699 GR |
| CN(C)C/C=C/C(=O)Nc1ccc(C(=O)Nc2cccc(Nc3ncc(Cl)c(-c4c[nH]c5ccccc45)n3)c2)cc1 [THZ1] (max 1 µM) | -0.128 GR | -0.784 GR | -0.507 GR | -0.0084 GR | -0.944 GR | -0.455 GR | -0.467 GR | 0.374 GR | 0.506 GR |
| CN(C)C/C=C/C(=O)Nc1ccc(C(=O)N2CCC[C@@H](Nc3ncc(Cl)c(-c4c[nH]c5ccccc45)n3)C2)cc1 [THZ531] (max 1 µM) | -0.0211 GR | -0.587 GR | -0.303 GR | 0.0684 GR | -0.933 GR | -0.217 GR | -0.725 GR | 0.134 GR | 0.407 GR |
| CN(C)C/C=C/C(=O)Nc1ccc(C(=O)Nc2cccc(Nc3cc(-c4c[nH]c5ccccc45)ncn3)c2)cc1 [THZ-P1-2] (max 10 µM) | -0.278 GR | -0.908 GR | -0.649 GR | -0.2 GR | -0.837 GR | 0.566 GR | -0.218 GR | 0.0927 GR | -0.0028 GR |
| C=CC(=O)Nc1ccc(C(=O)Nc2[nH]nc3c2CN(C(=O)N[C@H](CN(C)C)c2ccccc2)C3(C)C)cc1 [YKL-5-124] (max 10 µM) | 0.182 GR | -0.267 GR | -0.14 GR | -0.178 GR | -0.835 GR | -0.144 GR | -0.39 GR | 0.982 GR | 0.57 GR |
| CN1CCN(C(=O)c2ccc3cc(CCNc4ncnc5ccc(C#N)cc45)ccc3c2)CC1 [senexin b] (max 10 µM) | 0.856 GR | 0.307 GR | 0.455 GR | 0.705 GR | 0.458 GR | 0.748 GR | 0.248 GR | 0.0206 GR | 0.37 GR |
